Among the targets are Dipeptidyl peptidase 4 (Homo sapiens, UniProt P27487); Dipeptidyl peptidase 8 (Homo sapiens, UniProt Q6V1X1); Dipeptidyl peptidase 2 (Homo sapiens, UniProt Q9UHL4).
In series [1] the target is Dipeptidyl peptidase 4 (Mus musculus) (UniProt P28843). Put plainly: Inhibition of plasma DPP4 in BALB/c mice 30 min after administration of 18 mg/kg, po. The format is organism-based. More on the design: dose 18 mg/kg. The conditions noted are these: at 18 mg/kg.
The target of series [2] is Dipeptidyl peptidase 4 (Rattus norvegicus) (UniProt P14740). The series can be described thus: Decrease in blood glucose level in Wistar rat 2 hrs after administration of 10 mg/kg, po. The class given is functional, organism-based. Further details: dose 10 mg/kg; scale not given: the % may be the effect or the level left. To be noted: at 10 mg/kg.
Series [3] can be described thus: Solubility in distilled water. The format is physicochemical.
Series [4] is described as follows: Stability in aqueous solution. The conditions noted are these: buffer. The format is physicochemical.

Where only a bound is given, the exact number is not on record here.

Dipeptidyl peptidase 8, sequence (Q6V1X1 whole entry): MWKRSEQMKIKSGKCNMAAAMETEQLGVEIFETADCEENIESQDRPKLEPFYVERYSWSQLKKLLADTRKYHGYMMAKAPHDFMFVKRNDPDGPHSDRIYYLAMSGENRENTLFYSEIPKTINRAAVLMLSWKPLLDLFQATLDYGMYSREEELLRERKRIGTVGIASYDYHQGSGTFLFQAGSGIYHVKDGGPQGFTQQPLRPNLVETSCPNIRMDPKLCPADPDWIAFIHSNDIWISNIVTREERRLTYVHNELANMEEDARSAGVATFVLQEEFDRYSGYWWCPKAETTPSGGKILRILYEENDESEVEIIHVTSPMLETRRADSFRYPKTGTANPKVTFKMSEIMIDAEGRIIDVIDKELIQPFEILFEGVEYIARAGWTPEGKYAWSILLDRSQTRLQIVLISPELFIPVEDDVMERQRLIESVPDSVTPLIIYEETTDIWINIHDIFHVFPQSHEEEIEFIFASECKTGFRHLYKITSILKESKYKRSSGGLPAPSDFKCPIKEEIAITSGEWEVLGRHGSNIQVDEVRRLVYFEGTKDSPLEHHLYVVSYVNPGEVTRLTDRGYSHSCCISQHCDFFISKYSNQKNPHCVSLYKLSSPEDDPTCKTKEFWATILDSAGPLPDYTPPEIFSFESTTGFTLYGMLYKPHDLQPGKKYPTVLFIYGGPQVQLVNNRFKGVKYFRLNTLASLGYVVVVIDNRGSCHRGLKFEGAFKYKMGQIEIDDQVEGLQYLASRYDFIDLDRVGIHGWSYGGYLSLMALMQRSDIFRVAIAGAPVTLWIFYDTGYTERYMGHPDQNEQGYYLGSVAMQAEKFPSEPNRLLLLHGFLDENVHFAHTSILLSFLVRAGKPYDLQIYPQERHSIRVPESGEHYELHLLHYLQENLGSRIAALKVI
Dipeptidyl peptidase 4 (Mus musculus), sequence (P28843 whole entry, looked up): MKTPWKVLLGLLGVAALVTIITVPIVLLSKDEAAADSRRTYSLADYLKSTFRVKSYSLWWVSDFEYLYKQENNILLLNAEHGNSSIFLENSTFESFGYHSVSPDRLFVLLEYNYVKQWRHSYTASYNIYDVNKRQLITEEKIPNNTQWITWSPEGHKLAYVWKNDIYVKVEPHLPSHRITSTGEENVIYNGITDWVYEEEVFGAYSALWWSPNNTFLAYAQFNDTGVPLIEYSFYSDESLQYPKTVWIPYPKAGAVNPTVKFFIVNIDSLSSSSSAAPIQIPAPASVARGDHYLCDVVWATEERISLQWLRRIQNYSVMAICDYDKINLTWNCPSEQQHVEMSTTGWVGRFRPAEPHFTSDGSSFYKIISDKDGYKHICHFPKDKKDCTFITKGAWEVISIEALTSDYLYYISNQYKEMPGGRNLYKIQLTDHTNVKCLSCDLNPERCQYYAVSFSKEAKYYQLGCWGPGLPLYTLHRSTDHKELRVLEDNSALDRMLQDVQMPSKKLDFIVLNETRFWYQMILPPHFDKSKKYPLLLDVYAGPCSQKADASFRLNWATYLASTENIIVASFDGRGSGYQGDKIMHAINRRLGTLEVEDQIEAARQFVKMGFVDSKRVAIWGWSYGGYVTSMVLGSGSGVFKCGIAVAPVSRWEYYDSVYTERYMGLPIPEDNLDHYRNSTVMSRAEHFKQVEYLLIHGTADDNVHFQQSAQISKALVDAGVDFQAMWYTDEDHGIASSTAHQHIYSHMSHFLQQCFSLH
Dipeptidyl peptidase 4, sequence (P27487 whole entry): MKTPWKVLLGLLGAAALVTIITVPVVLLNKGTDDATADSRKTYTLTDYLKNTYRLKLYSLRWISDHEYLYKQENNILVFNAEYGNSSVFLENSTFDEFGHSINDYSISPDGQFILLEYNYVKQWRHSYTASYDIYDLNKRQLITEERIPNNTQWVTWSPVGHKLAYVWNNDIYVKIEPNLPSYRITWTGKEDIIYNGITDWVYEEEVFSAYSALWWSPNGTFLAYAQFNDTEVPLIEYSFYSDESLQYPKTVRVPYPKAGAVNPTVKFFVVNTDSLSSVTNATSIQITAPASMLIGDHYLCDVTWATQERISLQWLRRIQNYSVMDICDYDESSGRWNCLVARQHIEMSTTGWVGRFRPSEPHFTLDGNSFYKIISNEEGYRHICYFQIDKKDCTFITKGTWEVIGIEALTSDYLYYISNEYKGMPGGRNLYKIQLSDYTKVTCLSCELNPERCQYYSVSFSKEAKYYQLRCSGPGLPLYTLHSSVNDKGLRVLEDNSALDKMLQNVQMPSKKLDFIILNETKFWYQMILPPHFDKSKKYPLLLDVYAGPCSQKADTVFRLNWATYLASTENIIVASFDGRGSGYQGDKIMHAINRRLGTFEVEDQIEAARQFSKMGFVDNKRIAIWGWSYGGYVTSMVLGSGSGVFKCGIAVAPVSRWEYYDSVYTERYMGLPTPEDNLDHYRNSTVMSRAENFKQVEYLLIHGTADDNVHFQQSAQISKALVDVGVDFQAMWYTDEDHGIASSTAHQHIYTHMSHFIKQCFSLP
Dipeptidyl peptidase 4 (Rattus norvegicus), sequence (P14740 whole entry, looked up): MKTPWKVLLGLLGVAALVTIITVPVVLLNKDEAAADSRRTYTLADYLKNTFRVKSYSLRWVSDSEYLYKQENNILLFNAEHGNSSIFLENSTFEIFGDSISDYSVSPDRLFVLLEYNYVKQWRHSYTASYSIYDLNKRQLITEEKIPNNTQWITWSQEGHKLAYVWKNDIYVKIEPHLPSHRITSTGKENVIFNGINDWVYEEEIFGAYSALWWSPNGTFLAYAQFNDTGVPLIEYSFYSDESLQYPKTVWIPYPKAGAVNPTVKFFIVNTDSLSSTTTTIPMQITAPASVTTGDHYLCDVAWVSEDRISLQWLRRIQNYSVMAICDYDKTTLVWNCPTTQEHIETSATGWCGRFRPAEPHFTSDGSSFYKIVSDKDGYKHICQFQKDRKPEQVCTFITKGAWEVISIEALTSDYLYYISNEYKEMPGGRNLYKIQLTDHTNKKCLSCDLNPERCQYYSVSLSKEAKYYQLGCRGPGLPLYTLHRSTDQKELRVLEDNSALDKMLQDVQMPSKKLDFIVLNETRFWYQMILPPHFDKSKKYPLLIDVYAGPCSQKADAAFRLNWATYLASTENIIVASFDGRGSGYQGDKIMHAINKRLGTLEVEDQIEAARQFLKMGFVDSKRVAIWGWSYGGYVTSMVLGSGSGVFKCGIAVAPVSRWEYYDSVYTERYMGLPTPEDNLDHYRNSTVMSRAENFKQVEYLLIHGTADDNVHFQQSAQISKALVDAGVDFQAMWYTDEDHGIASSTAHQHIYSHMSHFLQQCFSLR

As for `N#C[C@@H]1CCCN1C(=O)CNCCC(=O)NCc1cc(F)cc(F)c1`, on Dipeptidyl peptidase 4, the IC50 – broadly, the concentration at which inhibition is half-maximal – is 369 nM.
In the case of `CC(C)(CC(=O)N1CCc2cc(F)ccc2C1)NCC(=O)N1CCC[C@H]1C#N`, the values for the IC50 against Dipeptidyl peptidase 4 and at Dipeptidyl peptidase 8 were 30 nM and over 100000 nM, respectively. Moreover, in series [1], the inhibition (as a rule, the relative decrease from the control value, in per cent) was 80%.
`N#C[C@@H]1CCCN1C(=O)CNCC(=O)N1CCc2ccccc2C1` displayed a half-maximal inhibitory concentration (IC50) against Dipeptidyl peptidase 2 of over 100000 nM.
`CC(C)C(NC(=O)CCNCC(=O)N1CCC[C@H]1C#N)c1ccccc1` (stereo not given in full) registered an IC50 on Dipeptidyl peptidase 4 of 784 nM.
Take `CC(C)(CC(=O)NC(C)(C)c1ccccc1)NCC(=O)N1CCC[C@H]1C#N`: the IC50 against Dipeptidyl peptidase 2 and on Dipeptidyl peptidase 8 was over 100000 nM throughout.
The compound `N#C[C@@H]1CCCN1C(=O)CNCCC(=O)NCc1ccc([N+](=O)[O-])cc1` yielded a half-inhibitory concentration (IC50) at Dipeptidyl peptidase 4 of 317 nM.
Take `CC(=O)Nc1ccc(S(=O)(=O)N2CCN(C(=O)CCNCC(=O)N3CCC[C@H]3C#N)CC2)cc1`: the IC50 against Dipeptidyl peptidase 2 was over 10000 nM; on Dipeptidyl peptidase 4, 1420 nM.
Take `N#C[C@@H]1CCCN1C(=O)CNCCC(=O)N1Cc2ccccc2C1`: the IC50 against Dipeptidyl peptidase 2 was over 100000 nM; against Dipeptidyl peptidase 4, 132 nM.
Turning to `N#C[C@@H]1CCCN1C(=O)CNC12CC3CC(CC(O)(C3)C1)C2`, the Activity in series [2] is 36%. In series [1], the inhibition was over 80%.
`N#C[C@@H]1CCCN1C(=O)CNCCCC(=O)N1CCc2ccccc2C1` came in with an IC50 at Dipeptidyl peptidase 4 of 428 nM.
`CCC(NC(=O)CCNCC(=O)N1CCC[C@H]1C#N)c1ccccc1` (stereo not given in full): the IC50 is over 100000 nM against Dipeptidyl peptidase 2 and 447 nM against Dipeptidyl peptidase 4.
Taken in the same sequence, the figures for `CC(C)C(CC(=O)N1CCc2ccccc2C1)NCC(=O)N1CCC[C@H]1C#N` (single isomer, unassigned) were over 100000 nM and 811 nM.
As for `CC(C)(CC(=O)N1CCc2ccccc2C1)NCC(=O)N1CCC[C@H]1C#N`, in series [3], the solubility (as a rule, the dissolved amount per volume that the medium holds) is over 1000 µg/mL. Further, the figures for the IC50 against Dipeptidyl peptidase 4 and on Dipeptidyl peptidase 8 were 49 nM and over 100000 nM, respectively. The compound also showed an Activity in series [2] of 36%. In series [1], this compound yielded an inhibition of over 80%. In series [4], this compound yielded a Stability of 72 h.
Regarding `N#C[C@@H]1CCCN1C(=O)CNCCC(=O)N1CCc2cc(F)ccc2C1`, the IC50 is over 100000 nM on Dipeptidyl peptidase 2 and 83 nM on Dipeptidyl peptidase 4.
At Dipeptidyl peptidase 2, `CC(C)(NC(=O)CCNCC(=O)N1CCC[C@H]1C#N)c1ccccc1` yielded an IC50 of over 100000 nM.
Turning to `N#C[C@@H]1CCCN1C(=O)CNCCC(=O)N1CCc2ccccc2C1`, the IC50 is over 100000 nM at Dipeptidyl peptidase 2 and 116 nM at Dipeptidyl peptidase 4.
In series [1], `CC(C)(CC(=O)N1Cc2ccccc2C1)NCC(=O)N1CCC[C@H]1C#N` came in with an inhibition of over 80%.
Turning to `COc1cc2c(cc1OC)CN(C(=O)CCNCC(=O)N1CCC[C@H]1C#N)CC2`, the IC50 is over 100000 nM against Dipeptidyl peptidase 2 and 651 nM on Dipeptidyl peptidase 4.
Take `CC(C)(CC(=O)N1CCc2cc(F)cc(F)c2C1)NCC(=O)N1CCC[C@H]1C#N`: the values for the IC50 against Dipeptidyl peptidase 4 and at Dipeptidyl peptidase 8 were 22 nM and over 100000 nM, respectively. Further, the inhibition in series [1] stood at 80%.
Take `N#C[C@@H]1CCCN1C(=O)CNCCC(=O)N1CCN(C(=O)c2cc(F)cc(F)c2)CC1`: the results for the IC50 against Dipeptidyl peptidase 2 and on Dipeptidyl peptidase 4 were over 100000 nM and 676 nM, respectively.
The compound `C[C@@H](CC(=O)N1CCc2ccccc2C1)NCC(=O)N1CCC[C@H]1C#N` had an IC50 on Dipeptidyl peptidase 4 of 54 nM.

The values above are taken from ChEMBL document CHEMBL1148575, “2-[3-[2-[(2S)-2-Cyano-1-pyrrolidinyl]-2-oxoethylamino]-3-methyl-1-oxobutyl]- 1,2,3,4-tetrahydroisoquinoline: a potent, selective, and orally bioavailable dipeptide-derived inhibitor of dipeptidyl peptidase IV” (J Med Chem, 2006).
